Literature values in article PMC4008261, “Rewiring of regenerated axons by combining treadmill training with semaphorin3A inhibition” (Molecular Brain, 2014).

Columns and labels:
SCT adult rats = test system: SCT adult rats; set-up: method as in PMID 17099709; conditions: adult rats after total spinal cord transection (SCT), osmotic mini-pump; cited from earlier work
semaphorin3A = test system: semaphorin3A; set-up: method as in PMID 17099709; conditions: in vitro and in vivo; cited from earlier work

Q: What does the source list for `CC(=O)c1c(C)c(/C(O)=C2\COc3cc(O)c(O)c(C(=O)O)c3C2=O)cc2c(=O)c3c(C(=O)O)c(O)c(O)cc3oc12` [SM-216289, xanthofulvin]?
A: axonal regeneration and motor function recovery (SCT adult rats): led to axonal regeneration and motor function recovery; inhibition of semaphorin3A signaling (semaphorin3A): selectively inhibits semaphorin3A signaling both in vitro and in vivo
